Assay results from patent publication US20120264159A1, “SCREENING SYSTEM FOR MODULATORS OF HER2 MEDIATED TRANSCRIPTION AND HER2 MODULATORS IDENTIFED THEREBY” (BUCK INSTITUTE FOR AGE RESEARCH, priority 2001, published 2012).

Test system: ESX transcript
Assay: Northern blot of ESX transcript levels in SKBR3 cells
Type: cell-based, human
Conditions: 24 hours TSA treatment
Protocol: The conserved and singular DNase I hypersensitivity sites found in the proximal ErbB2 and ESX promoters (12,15) were assayed as before (12). Briefly, following culture treatment of cells, nuclei isolated by mild detergent lysis in a buffer containing 10 mM Hepes pH 7.9, 1.5 mM MgCl2, 10 mM KCl, 0.4% NP-40, 10% glycerol and 1 mM DTT. Partial DNase I digestions were carried out by varying DNase I treatment times (0-15 minutes at 37( ) at a fixed DNase I concentrations (0.5-1.0 units per 10^6 nuclei). After purifying and restricting the DNA, it was electrophoresed through 0.7% agarose gels and blotted onto nylon membranes, UV-crosslinked and hybridized with randomly ^32P-labelled ErbB2 and ESX promoter probes, as similarly performed for routine Southern blotting. For Northern blotting, total (treated vs. control) cell RNA (10 μg/sample lane) was isolated using TRIzol (Invitrogen) according to manufacturer's specifications, electrophoresed into 1% agarose-formaldehyde gels and transferred onto membranes that were then hybridized with ^32P-labelled ErbB2 and ESX cDNA probes. For transcriptional run-off assays cell nuclei were first isolated from treated and control cells as described for the DNase I studies. […]

SMILES: CC(/C=C/C(=O)NO)=C\[C@@H](C)C(=O)c1ccc(N(C)C)cc1 [TSA, trichostatin A]
- increase in ESX transcript levels: 5 fold
